Source: publication PMC9814781, “Structure-based design of a dual-warhead covalent inhibitor of FGFR4” (Communications Chemistry, 2022)

How the values were obtained:
EPHA5 = EPHA5 (Homo sapiens, UniProt P54756); test: Kinase selectivity profiling
Erk2 = Erk2 (Homo sapiens, UniProt P28482); test: Kinase selectivity profiling
DDR1 = DDR1 (Homo sapiens, UniProt Q08345); test: Kinase selectivity profiling
ROS1 = ROS1 (Homo sapiens, UniProt P08922); test: Kinase selectivity profiling
p38δ = p38δ (Homo sapiens, UniProt O15264); test: Kinase selectivity profiling
FLT4 (VEGFR3) = FLT4 (VEGFR3) (Homo sapiens, UniProt P35916); test: Kinase selectivity profiling
YES = YES (Homo sapiens, UniProt P07947); test: Kinase selectivity profiling
Chain of YES (P07947 whole entry): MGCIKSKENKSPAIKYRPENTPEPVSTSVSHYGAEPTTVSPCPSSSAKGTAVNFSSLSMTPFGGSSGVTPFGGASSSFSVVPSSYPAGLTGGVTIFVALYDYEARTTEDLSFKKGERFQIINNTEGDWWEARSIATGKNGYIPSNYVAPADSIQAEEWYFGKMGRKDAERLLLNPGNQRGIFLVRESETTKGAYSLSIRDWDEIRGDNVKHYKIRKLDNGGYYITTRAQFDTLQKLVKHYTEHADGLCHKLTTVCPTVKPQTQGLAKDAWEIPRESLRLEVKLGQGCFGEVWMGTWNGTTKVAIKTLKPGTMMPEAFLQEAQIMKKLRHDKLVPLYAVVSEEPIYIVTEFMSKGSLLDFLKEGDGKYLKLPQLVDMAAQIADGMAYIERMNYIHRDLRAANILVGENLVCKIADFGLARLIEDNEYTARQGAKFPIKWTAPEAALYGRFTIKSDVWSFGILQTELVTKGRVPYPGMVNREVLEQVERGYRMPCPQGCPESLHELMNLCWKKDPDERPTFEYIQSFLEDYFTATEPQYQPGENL

TTK = TTK (Homo sapiens, UniProt P33981); test: Kinase selectivity profiling
CDK5/p35NCK = CDK5/p35NCK (Homo sapiens, UniProt Q00535); test: Kinase selectivity profiling
ROCK1 = ROCK1 (Homo sapiens, UniProt Q13464); test: Kinase selectivity profiling
Chain of ROCK1 (Q13464 whole entry): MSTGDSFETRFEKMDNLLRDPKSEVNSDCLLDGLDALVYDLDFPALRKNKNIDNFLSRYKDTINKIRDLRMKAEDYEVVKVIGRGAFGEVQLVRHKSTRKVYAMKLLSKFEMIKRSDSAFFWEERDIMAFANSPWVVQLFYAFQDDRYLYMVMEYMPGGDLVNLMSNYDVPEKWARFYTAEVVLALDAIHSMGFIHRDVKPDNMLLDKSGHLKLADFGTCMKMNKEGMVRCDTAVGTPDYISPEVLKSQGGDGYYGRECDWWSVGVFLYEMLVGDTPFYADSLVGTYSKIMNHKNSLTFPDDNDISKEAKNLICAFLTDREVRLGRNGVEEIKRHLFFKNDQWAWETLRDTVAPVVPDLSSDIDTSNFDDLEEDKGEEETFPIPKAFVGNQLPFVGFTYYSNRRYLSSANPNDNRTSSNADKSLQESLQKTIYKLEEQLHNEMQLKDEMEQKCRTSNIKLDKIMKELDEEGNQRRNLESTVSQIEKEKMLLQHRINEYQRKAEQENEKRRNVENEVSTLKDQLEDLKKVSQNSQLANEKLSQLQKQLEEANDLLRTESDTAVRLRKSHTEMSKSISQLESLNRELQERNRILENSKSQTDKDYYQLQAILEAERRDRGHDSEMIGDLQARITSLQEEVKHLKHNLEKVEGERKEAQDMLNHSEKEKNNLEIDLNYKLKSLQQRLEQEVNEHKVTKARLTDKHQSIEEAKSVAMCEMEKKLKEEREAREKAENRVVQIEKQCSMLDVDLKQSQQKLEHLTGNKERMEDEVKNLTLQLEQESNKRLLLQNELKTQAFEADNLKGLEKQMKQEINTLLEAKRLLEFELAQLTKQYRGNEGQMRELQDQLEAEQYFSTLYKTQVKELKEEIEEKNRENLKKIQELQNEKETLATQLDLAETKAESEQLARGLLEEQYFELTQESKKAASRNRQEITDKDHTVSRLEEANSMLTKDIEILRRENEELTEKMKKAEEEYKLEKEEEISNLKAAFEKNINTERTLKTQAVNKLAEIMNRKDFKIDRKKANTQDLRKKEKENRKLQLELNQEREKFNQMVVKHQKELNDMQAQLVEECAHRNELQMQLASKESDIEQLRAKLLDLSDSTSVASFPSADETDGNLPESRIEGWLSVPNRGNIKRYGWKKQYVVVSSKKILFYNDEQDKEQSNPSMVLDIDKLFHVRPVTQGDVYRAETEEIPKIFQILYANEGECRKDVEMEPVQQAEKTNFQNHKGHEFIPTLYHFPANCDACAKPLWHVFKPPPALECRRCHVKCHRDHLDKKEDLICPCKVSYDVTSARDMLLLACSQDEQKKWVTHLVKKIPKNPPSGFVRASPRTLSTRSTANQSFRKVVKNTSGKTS

EPHA6 = EPHA6 (Homo sapiens, UniProt Q9UF33); test: Kinase selectivity profiling
KIT[D816V] = KIT[D816V] (Homo sapiens, UniProt P10721, D816V); test: Kinase selectivity profiling
CDK5/p25NCK = CDK5/p25NCK (Homo sapiens, UniProt Q00535); test: Kinase selectivity profiling
CDK1/CycE1 = CDK1/CycE1 (Homo sapiens, UniProt P06493); test: Kinase selectivity profiling
INSR = INSR (Homo sapiens, UniProt P06213); test: Kinase selectivity profiling
IKK-alpha(CHUK) = IKK-alpha(CHUK) (Homo sapiens, UniProt O15111); test: Kinase selectivity profiling
FGFR2 = FGFR2 (Homo sapiens, UniProt P21802); test: Kinase inhibition assay (ADP-Glo); format: biochemical; set-up: FGFR2 (residues 453–770); 6xHis + PreScission site (N, cleaved yes); made in house; host or cells: Escherichia coli Rosseta
Procedure: (§1) Wild-type FGFRs and mutant FGFRs were prepared as previously described[25]–[27]. In brief, the kinase domains of human FGFR1 (residues 456–765), FGFR2 (residues 453–770), FGFR3 (residues 450–758), and FGFR4 (residues 445–753) were cloned into a modified pET28a expression vector and then transfected into Escherichia coli Rosseta cells. The N-terminal of the recombinant proteins were contained a 6xHis tag followed by a PreScission cleavage site for FGFR1, FGFR2, FGFR3, and FGFR4. Site-directed mutagenesis of FGFR4 was generated according to the ClonExpress II One Step Cloning Kit (Vazyme) using the pET28a-FGFR4 plasmid as the template. These mutants were confirmed by DNA sequencing (Tsingke, Changsha, China). For crystallization experiments, the wild-type FGFR4 plasmid was co-expressed with untagged YOPH to obtain non-phosphorylated proteins. The proteins were first purified by Ni-NTA affinity chromatography. […]
(§2) All kinase inhibition assays were performed with optimized kinase assay buffer consisting of 40 mM Tris-HCl pH 7.5, 20 mM MgCl2, 20 mM NaCl, 0.1 mg/mL BSA, 1 mM TCEP, and 4% DMSO. […] Fluorescence was measured on a multimode plate reader (Perkin-Elmer) using a chemiluminescence program after the addition of the detection reagent. IC50 values were determined using a three-parameter log [Inhibitor] versus response model in GraphPad Prism software.

JNK3 = JNK3 (Homo sapiens, UniProt P53779); test: Kinase selectivity profiling
Chain of JNK3 (P53779 whole entry): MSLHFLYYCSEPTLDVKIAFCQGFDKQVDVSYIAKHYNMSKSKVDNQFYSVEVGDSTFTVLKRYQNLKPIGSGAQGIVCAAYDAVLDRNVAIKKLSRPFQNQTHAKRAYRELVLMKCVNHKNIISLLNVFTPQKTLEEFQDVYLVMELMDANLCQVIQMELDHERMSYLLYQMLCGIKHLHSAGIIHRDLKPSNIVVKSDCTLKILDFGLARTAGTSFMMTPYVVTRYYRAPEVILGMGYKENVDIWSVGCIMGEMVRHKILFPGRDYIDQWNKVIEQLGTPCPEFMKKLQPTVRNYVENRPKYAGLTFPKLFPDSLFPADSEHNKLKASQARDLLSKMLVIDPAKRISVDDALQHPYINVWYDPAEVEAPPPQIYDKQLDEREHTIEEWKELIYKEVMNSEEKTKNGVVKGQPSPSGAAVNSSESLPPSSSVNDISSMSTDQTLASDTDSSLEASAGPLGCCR

SGK = SGK (Homo sapiens, UniProt O00141); test: Kinase selectivity profiling
FGFR3 = FGFR3 (Homo sapiens, UniProt P22607); test: Kinase inhibition assay (ADP-Glo); format: biochemical; set-up: FGFR3 (residues 450–758); 6xHis + PreScission site (N, cleaved yes); made in house; host or cells: Escherichia coli Rosseta
Chain of FGFR3 (P22607 450-758): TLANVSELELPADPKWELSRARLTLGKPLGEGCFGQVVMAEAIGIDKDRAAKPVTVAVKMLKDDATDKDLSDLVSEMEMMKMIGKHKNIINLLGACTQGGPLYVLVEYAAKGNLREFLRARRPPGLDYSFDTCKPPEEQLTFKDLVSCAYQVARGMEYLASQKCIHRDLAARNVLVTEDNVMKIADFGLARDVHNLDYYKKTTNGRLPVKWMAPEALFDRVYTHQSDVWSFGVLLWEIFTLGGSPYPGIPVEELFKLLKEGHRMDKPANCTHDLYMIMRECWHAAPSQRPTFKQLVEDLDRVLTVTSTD
Procedure: as §1, §2

FLT3 = FLT3 (Homo sapiens, UniProt P36888); test: Kinase selectivity profiling
p38γ = p38γ (Homo sapiens, UniProt P53778); test: Kinase selectivity profiling
CDK6/CycD1 = CDK6/CycD1 (Homo sapiens, UniProt Q00534); test: Kinase selectivity profiling
Chain of CDK6/CycD1 (Q00534 whole entry): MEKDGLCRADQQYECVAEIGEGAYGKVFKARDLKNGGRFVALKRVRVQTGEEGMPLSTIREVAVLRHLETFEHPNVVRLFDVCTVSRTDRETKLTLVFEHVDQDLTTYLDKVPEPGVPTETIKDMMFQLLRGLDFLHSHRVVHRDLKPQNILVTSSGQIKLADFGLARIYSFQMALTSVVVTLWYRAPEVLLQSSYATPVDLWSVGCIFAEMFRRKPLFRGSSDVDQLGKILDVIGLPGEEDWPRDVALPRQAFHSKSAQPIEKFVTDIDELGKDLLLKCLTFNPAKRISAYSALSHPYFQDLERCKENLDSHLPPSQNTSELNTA
Chain of CDK6/CycD1 (P24385 whole entry partner): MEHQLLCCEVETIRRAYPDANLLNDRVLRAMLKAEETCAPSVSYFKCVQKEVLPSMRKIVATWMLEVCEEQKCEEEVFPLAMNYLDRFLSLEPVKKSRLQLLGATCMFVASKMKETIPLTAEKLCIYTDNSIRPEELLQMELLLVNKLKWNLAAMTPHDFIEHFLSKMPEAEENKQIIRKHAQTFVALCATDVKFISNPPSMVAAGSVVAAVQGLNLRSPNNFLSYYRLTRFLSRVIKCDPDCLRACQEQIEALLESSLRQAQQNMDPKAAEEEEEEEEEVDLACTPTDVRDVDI

PAK3 = PAK3 (Homo sapiens, UniProt O75914); test: Kinase selectivity profiling
CHK1(CHEK1) = CHK1(CHEK1) (Homo sapiens, UniProt O14757); test: Kinase selectivity profiling
Chain of CHK1(CHEK1) (O14757 whole entry): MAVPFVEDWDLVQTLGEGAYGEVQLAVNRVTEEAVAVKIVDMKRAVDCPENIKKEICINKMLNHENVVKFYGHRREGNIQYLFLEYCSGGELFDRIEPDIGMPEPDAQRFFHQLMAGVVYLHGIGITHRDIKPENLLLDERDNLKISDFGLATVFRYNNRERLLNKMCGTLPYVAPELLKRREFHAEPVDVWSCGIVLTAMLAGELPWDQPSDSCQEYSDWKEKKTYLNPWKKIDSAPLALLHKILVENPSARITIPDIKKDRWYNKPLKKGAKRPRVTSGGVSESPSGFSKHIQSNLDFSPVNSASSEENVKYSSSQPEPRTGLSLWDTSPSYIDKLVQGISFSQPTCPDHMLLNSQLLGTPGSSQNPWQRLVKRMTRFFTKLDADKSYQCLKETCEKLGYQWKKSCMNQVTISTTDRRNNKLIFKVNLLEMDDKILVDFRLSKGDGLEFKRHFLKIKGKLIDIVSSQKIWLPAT

KDR (VEGFR2) = KDR (VEGFR2) (Homo sapiens, UniProt P35968); test: Kinase selectivity profiling

Chain of EPHA5 (P54756 25-1037): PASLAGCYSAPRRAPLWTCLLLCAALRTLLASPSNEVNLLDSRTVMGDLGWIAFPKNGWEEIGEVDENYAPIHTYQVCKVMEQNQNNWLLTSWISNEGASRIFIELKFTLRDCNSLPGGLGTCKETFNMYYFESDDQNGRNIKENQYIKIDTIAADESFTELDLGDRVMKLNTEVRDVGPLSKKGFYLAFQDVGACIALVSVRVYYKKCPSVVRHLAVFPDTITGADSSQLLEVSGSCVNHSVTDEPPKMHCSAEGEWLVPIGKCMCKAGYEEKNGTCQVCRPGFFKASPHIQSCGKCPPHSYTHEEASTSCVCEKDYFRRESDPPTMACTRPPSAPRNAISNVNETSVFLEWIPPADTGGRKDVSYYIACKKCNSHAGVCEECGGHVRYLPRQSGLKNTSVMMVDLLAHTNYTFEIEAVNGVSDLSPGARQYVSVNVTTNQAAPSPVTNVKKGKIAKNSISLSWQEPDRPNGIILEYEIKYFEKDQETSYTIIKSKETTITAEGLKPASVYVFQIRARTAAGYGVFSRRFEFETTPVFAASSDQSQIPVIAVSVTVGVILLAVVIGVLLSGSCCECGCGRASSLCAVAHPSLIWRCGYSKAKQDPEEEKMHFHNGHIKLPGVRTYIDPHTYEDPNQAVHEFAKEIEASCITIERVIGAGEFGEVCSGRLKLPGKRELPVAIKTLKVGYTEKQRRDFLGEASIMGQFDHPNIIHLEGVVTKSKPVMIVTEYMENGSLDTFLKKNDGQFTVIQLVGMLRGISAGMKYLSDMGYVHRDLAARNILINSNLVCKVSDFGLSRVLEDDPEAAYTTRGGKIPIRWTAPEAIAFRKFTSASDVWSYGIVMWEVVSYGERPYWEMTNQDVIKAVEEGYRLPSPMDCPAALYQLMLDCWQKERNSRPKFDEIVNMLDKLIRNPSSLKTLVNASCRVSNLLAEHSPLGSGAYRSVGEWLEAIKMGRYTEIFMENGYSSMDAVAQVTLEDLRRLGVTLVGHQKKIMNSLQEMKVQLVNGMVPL

## C=CC(=O)Nc1ccccc1Nc1ncc2c(n1)N(CCCN1CCN(C(=O)C=C)CC1)C(=O)N(c1cc(OC)cc(OC)c1)C2 [CXF-009]
EPHA5
  inhibition at 1 µM: 8.67%
Erk2
  inhibition at 1 µM: 0.94%
DDR1
  inhibition at 1 µM: -3.41%
ROS1
  inhibition at 1 µM: -0.51%
p38δ
  inhibition at 1 µM: 13.9%
FLT4 (VEGFR3)
  inhibition at 1 µM: 0.74%
YES
  inhibition at 1 µM: -7.61%
TTK
  inhibition at 1 µM: 6.62%
CDK5/p35NCK
  inhibition at 1 µM: -0.87%
ROCK1
  inhibition at 1 µM: 5.09%
EPHA6
  inhibition at 1 µM: 5.28%
KIT[D816V]
  inhibition at 1 µM: -6.19%
CDK5/p25NCK
  inhibition at 1 µM: -5.5%
CDK1/CycE1
  inhibition at 1 µM: -7.18%
INSR
  inhibition at 1 µM: 0.8%
IKK-alpha(CHUK)
  inhibition at 1 µM: 2.35%
FGFR2
  IC50: 2.41 µM
JNK3
  inhibition at 1 µM: -3.67%
SGK
  inhibition at 1 µM: 2.9%
FGFR3
  IC50: 0.977 µM
FLT3
  inhibition at 1 µM: -1.11%
p38γ
  inhibition at 1 µM: 0.13%
CDK6/CycD1
  inhibition at 1 µM: -9.58%
PAK3
  inhibition at 1 µM: 0.97%
CHK1(CHEK1)
  inhibition at 1 µM: 1.53%
KDR (VEGFR2)
  inhibition at 1 µM: -5.37%
